Experimental data published in US20050113309A1, “Crystalline forms(2s)-n-5[amino(imino)methyl]-2-thienylmethyl-1-(2r)-2[(carboxymethyl) amino]-3,3-diphenylpropanoyl-2-pyrrolidinecarboxamide nh2o” (priority 2002, published 2005).
“Also recorded” adds a separate entry of the source.

Legend:
[1] = Stress stability test (storage at −20° C., 50° C., 70° C. for 4 weeks); assay type: physicochemical; settings: for Discoloration / change in appearance: 4 weeks' storage; for Color / Stability compared with the amorphous form: stress stability test; for Color: temperature not given (change in appearance at 70° C.)
Protocol: In order to compare physicochemical stability among the crystalline Form VI, the crystalline Form I, and the amorphous form prepared in Examples 7, 8, and Comparative Example 1, the stress stability test was conducted by placing their samples at the temperatures of −20° C., 50° C., and 70° C. for 4 weeks.

[2] = Powder X-ray diffraction during moisture absorption and dehumidification (crystal form stability to relative humidity); assay type: physicochemical; settings: moisture absorption / relative humidity 33-93%
Protocol: 40 mg of the above crystalline Form I was thinly coated onto a sample holder. And, immediately after the sample was dried under vacuum in the presence of P2O5, and after the sample was placed for moisture absorption at each relative humidity of 33%, 53%, 64%, 75%, and 93% for two days or more, respectively, the powder X-ray diffraction test was conducted on the sample according to the conditions represented in above Test example 1 to observe change of the crystalline formi during moisture absorption. While lowering the relative humidity, the same test was repeated to observe change of the crystalline form during dehumidification.
In order to obtain each relative humidity above, as shown in the table below, saturated aqueous solutions of salts were prepared, then placed in a desiccator, and the desiccator was sealed.
40 mg of the above crystalline Form IV was thinly coated onto a sample holder. Immediately after the sample was dried under vacuum in the presence of P2O5, and after the sample was placed for moisture absorption at each relative humidity of 33%, 53%, 64%, 75%, and 93% for two days or more, respectively, the powder X-ray diffraction test of the sample was conducted according to the conditions represented in Test example 1 above to observe change of the crystalline form during moisture absorption. While lowering the relative humidity, the same test was repeated to observe change of the crystalline form during dehumidification.
In order to obtain each relative humidity above, as shown in Table 3 of Test example 2, saturated aqueous solutions of salts were prepared and then placed in a desiccator, and the desiccator was sealed.

| Compound | Residual rate after 4 weeks ([1]; 50° C., 4 weeks) [%] | Residual rate after 4 weeks ([1]; 50° C., 4 weeks, listed as amorphous form) [%] | Residual rate after 4 weeks ([1]; 70° C., 4 weeks) [%] | Discoloration / change in appearance ([1]; 70° C.) | Residual rate after 4 weeks ([1]; 70° C., 4 weeks, listed as amorphous form) [%] | Color ([1]; 4 weeks) | Change in appearance ([1]; −20° C. and 50° C., 4 weeks) | Residual rate after 4 weeks ([1]; −20° C., 4 weeks) [%] | Residual rate after 4 weeks ([1]; −20° C., 4 weeks, listed as amorphous form) [%] | Change of crystal structure / crystalline form with relative humidity [2] | Stability compared with the amorphous form ([1]; 4 weeks) |
| --- | --- | --- | --- | --- | --- | --- | --- | --- | --- | --- | --- |
| N=C(N)c1ccc(CNC(=O)[C@@H]2CCCN2C(=O)[C@H](NCC(=O)O)C(c2ccccc2)c2ccccc2)s1 [Amorphous form, (2S)-N-5-[amino(imino)methyl]-2-thienylmethyl-1-(2R)-2-[(carboxymethyl)amino]-3,3-diphenylpropanoyl-2-pyrrolidinecarboxamide] | 96 | 96 | 87 | discoloration; also recorded: change in appearance | 87 | Yellow | did not show any change in appearance | 96 | 96 | – | – |
| N=C(N)c1ccc(CNC(=O)[C@@H]2CCCN2C(=O)[C@H](NCC(=O)O)C(c2ccccc2)c2ccccc2)s1 [Form II, (2S)-N-5-[amino(imino)methyl]-2-thienylmethyl-1-(2R)-2-[(carboxymethyl)amino]-3,3-diphenylpropanoyl-2-pyrrolidinecarboxamide] | – | – | – | – | – | – | – | – | – | changed to the crystalline Form III | – |
| N=C(N)c1ccc(CNC(=O)[C@@H]2CCCN2C(=O)[C@H](NCC(=O)O)C(c2ccccc2)c2ccccc2)s1 [Form V, (2S)-N-5-[amino(imino)methyl]-2-thienylmethyl-1-(2R)-2-[(carboxymethyl)amino]-3,3-diphenylpropanoyl-2-pyrrolidinecarboxamide] | – | – | – | – | – | – | – | – | – | changed into the crystalline Form VI | – |
| N=C(N)c1ccc(CNC(=O)[C@@H]2CCCN2C(=O)[C@H](NCC(=O)O)C(c2ccccc2)c2ccccc2)s1 [Form IV, (2S)-N-5-[amino(imino)methyl]-2-thienylmethyl-1-(2R)-2-[(carboxymethyl)amino]-3,3-diphenylpropanoyl-2-pyrrolidinecarboxamide] | – | – | – | stable without discoloration | – | – | – | – | – | – | – |
| N=C(N)c1ccc(CNC(=O)[C@@H]2CCCN2C(=O)[C@H](NCC(=O)O)C(c2ccccc2)c2ccccc2)s1 [Form I, (2S)-N-5-[amino(imino)methyl]-2-thienylmethyl-1-(2R)-2-[(carboxymethyl)amino]-3,3-diphenylpropanoyl-2-pyrrolidinecarboxamide] | 99 | – | 100 | stable without discoloration | – | Ivory | – | 99 | – | – | remarkably superior stability over the amorphous form |
| N=C(N)c1ccc(CNC(=O)[C@@H]2CCCN2C(=O)[C@H](NCC(=O)O)C(c2ccccc2)c2ccccc2)s1 [Form VI, (2S)-N-5-[amino(imino)methyl]-2-thienylmethyl-1-(2R)-2-[(carboxymethyl)amino]-3,3-diphenylpropanoyl-2-pyrrolidinecarboxamide] | 99 | – | 100 | – | – | Ivory | – | 101 | – | crystal structure is not changed under any relative humidity | remarkably superior stability over the amorphous form |
